This note sets out measurements from patent publication US20210196766A1, “DESIGNED BACTERIAL COMPOSITIONS AND USES THEREOF” (Seres Therapeutics, Inc., priority 2019, published 2021).

Read-outs that look alike come from different tables or passages of the source.

Assay [1] deals with HDAC enzymes (HeLa nuclear extract). Kind of assay: HDAC inhibition assay of bacterial supernatants (HDAC-Glo I/II, HeLa nuclear extract). It counts as biochemical.
The subject of assay [2] is HT29 cells. Briefly: Anti-inflammatory assay in IECs: TNF-α-driven IL-8 secretion by HT29 cells. It counts as cell-based, human. To be noted: metabolites.
The subject of assay [3] is primary human colon epithelial cell monolayer. Briefly: Primary epithelial cell monolayer barrier integrity assay (IFN-γ, FITC-dextran). As to conditions: for restoration of barrier integrity in the presence of IFN-γ: metabolites, starting at a concentration of about 5 mM.
Method: The assays were performed using a primary epithelial cell monolayer barrier integrity assay. […] The addition of interferon-gamma (IFN-γ) disrupts the tight junctions of the epithelial monolayer and induces apoptosis of epithelial cells. The leakiness of the membrane can be assessed by adding FITC-dextran to the apical side of the apparatus and measuring how rapidly it can pass to the basolateral compartment. A leaky monolayer will allow FITC-dextran to the basal side of the apparatus more quickly than a monolayer with an intact monolayer.
Briefly, the barrier integrity assay was conducted as follows. […] Colon organoids were harvested and trypsinized into a suspension containing few cell clusters and seeded onto Matrigel coated transwell inserts (Corning) at a density of 100,000 cells per insert in 50% L-WRN medium supplemented with 10 μM Y-27632 (Millipore Sigma). […] These primarily stem cell population was differentiated into colonocytes by switching the culture medium to 5% L-WRN for 48 hours. After 24 hours of differentiation, specific SCFA or 5% bacterial culture supernatant treatments were added to apical interface in 100 μL of 5% L-WRN medium and 5-25 ng/ml INFγ (Peprotech), depending on the experiment, was added in 175 μL of 5% L-WRN medium to the basolateral interface and incubated for 48 hours at 37° C. After the 48 hour incubation, colonic epithelial monolayer permeability was assessed by adding 10 μL of 10 ng/ml FITC-Dextran (4 kDa, Sigma) to the apical interface, the organoids were incubated for 1 hour and then 100 μL of medium was collected from the basolateral compartment of each transwell and transferred to a 96 well plate for fluorescence detection.
The nature of assay [4]: GC-MS of short-, medium- and branched-chain fatty acids in supernatants. To be noted: single strain supernatants. The source says: FIG. 18 provides a table listing bacterial species and the short chain fatty acids (SCFAs), medium chain fatty acids (MCFAs), and branched chain fatty acids (BCFAs) produced by each of the species. […] The limit of detection for each of the fatty acids is provided in the row labeled “Limit of Detection (LOD).” The SCFAs measured included: acetic acid, propanoic acid, and butanoic acid. The MCFAs measured included: pentanoic acid, hexanoic acid, heptanoic acid. The BCFAs measured included: 2-methyl-propanopic acid, 3-methyl-butanoic acid, and 4-methyl-pentaoic acid.
As described supra, certain tryptophan (Trp) metabolites were associated with remission in patients treated with an HHSP. Accordingly, Applicant tested various bacterial species for the presence of SCFA or tryptophan metabolites in their supernatants. The presence of the tryptophan metabolites was determined using a colorimetric assay for detection of indolic compounds (Indole Reagent, Anaerob Systems). Indole produces a light blue color in this assay, while other Trp metabolites produce purple color. The presence of SCFAs were tested using the HDAC assay (described supra). Supernatants of selected strains that were identified as producers of Trp metabolites by the colorimetric indole assay, and/or producers of SCFAs by the HDAC assay were further analyzed by GC-MS to identify the specific metabolites produced.

In assay [1], Parabacteroides distasonis came in with an HDAC cluster assignment of 3.
Clostridium sp 7 2 43FAA came in with an HDAC cluster assignment in assay [1] (pattern of HDAC inhibition across nutrient sources) of 5. Further, in assay [1] (supernatants of strains grown in PY medium with one of seven C sources at 0.5%), the “HDAC Inhibition in any C source (25/18% cutoff)” value was 1 (If a strain exhibits HDACi activity of at least 0.25 in any nutrient, or 0.18 in fucose, it is considered to have HDACi activity and it is marked with “1”).
For `CCC(=O)O` [propionate], the “TNF-α-dependent IL-8 secretion” value in assay [2] is “reduced levels of TNF-α-dependent IL-8 secretion”. In addition, the “restoration of barrier integrity in the presence of IFN-γ” value in assay [3] is recorded as “restored barrier integrity”.
`CCCC(=O)O` [butyrate] had a decrease of permeability in assay [3] (5 mM, positive control) of 50%.
In assay [1], Clostridium mayombei had an HDAC cluster assignment of 2.
The same measure, in the same setting: under Clostridium tertium stands 5.
Regarding `CC(=O)O` [acetate], the “TNF-α-dependent IL-8 secretion” value in assay [2] is “reduced levels of TNF-α-dependent IL-8 secretion”.
As to Clostridium glycolicum, in assay [4], the hexanoate production entry is “Hexanoate producing”.
As for `O=C(O)CCc1c[nH]c2ccccc12` [3-indolepropionic acid], in assay [3], the “restoration of barrier integrity in the presence of IFN-γ” value is on record as “restored barrier integrity”.
For the compound Clostridium disporicum, the HDAC cluster assignment in assay [1] was determined as 0.
Still for that read-out and setting: the same measure for Clostridium clostridioforme: 6.
